#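 Protocol summary: plate cells (96-well), add compound at 5 concentrations, incubate 48 h, interpolate endpoints linearly. At the GI50, growth is halved.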 Calls of active or inactive are those of the source. No stated cut-off is given here; in the data, active = GI50 up to about 1.1 µM and inactive = higher.
# Assays:
# Experiment in all cases: NCI anticancer screen, dose series, 48 h
# [1] = test system: SW-620
# [2] = test system: TK-10
# [3] = test system: MOLT-4
# [4] = test system: SF-295
# [5] = test system: SR
# [6] = test system: M14
# [7] = test system: NCI-H522
# [8] = test system: A549
# [9] = test system: A498
# [10] = test system: PC-3
# [11] = test system: T47D
# [12] = test system: Hs-578T
# [13] = test system: 786-0
# [14] = test system: HOP-62
# [15] = test system: BT-549
# [16] = test system: SN12C
# [17] = test system: DU-145
# [18] = test system: EKVX
# [19] = test system: OVCAR-5
# [20] = test system: IGROV-1
# [21] = test system: SK-MEL-2
# [22] = test system: OVCAR-8
# [23] = test system: OVCAR-4
# [24] = test system: HCC 2998
# [25] = test system: OVCAR-3
# [26] = test system: HCT-15
# [27] = test system: HOP-92
# [28] = test system: SK-MEL-28
# [29] = test system: HT-29
# [30] = test system: Malme-3M
# [31] = test system: HCT-116
# [32] = test system: SNB-19
# [33] = test system: K562
# [34] = test system: NCI-H226
# [35] = test system: LOX IMVI
# [36] = test system: SK-MEL-5
# [37] = test system: UACC-257
# [38] = test system: MDA-MB-435
# [39] = test system: CAKI-1
# [40] = test system: MDA-N
# [41] = test system: NCI-H460
# [42] = test system: SF-268
# [43] = test system: UACC-62
# [44] = test system: NCI-H23
# [45] = test system: SNB-75
# [46] = test system: ACHN
# [47] = test system: KM12
# [48] = test system: U-251
# [49] = test system: MDA-MB-231
# [50] = test system: UO-31
# [51] = test system: NCI/ADR-RES
# [52] = test system: RXF 393
# [53] = test system: CCRF-CEM
structure (smiles),measurement,setting,value
O=C(C[N+]12CN3CN(CN(C3)C1)C2)c1ccc(-c2ccccc2)cc1,GI50,[1],8.67 µM (inactive)
same,GI50,[2],21.2 µM (inactive)
same,GI50,[3],16.7 µM (inactive)
same,GI50,[4],19.8 µM (inactive)
same,GI50,[5],3.2 µM (inactive)
same,GI50,[6],21.7 µM (inactive)
same,GI50,[7],19.3 µM (inactive)
same,GI50,[8],30.1 µM (inactive)
same,GI50,[9],19.6 µM (inactive)
same,GI50,[10],16 µM (inactive)
same,GI50,[11],37.2 µM (inactive)
same,GI50,[12],32.7 µM (inactive)
same,GI50,[13],17.7 µM (inactive)
same,GI50,[14],23 µM (inactive)
same,GI50,[15],29.9 µM (inactive)
same,GI50,[16],19.7 µM (inactive)
same,GI50,[17],17.6 µM (inactive)
same,GI50,[18],19.8 µM (inactive)
same,GI50,[19],18.6 µM (inactive)
same,GI50,[20],24.3 µM (inactive)
same,GI50,[21],18.3 µM (inactive)
same,GI50,[22],32 µM (inactive)
same,GI50,[23],51.4 µM (inactive)
same,GI50,[24],15.4 µM (inactive)
same,GI50,[25],29.3 µM (inactive)
same,GI50,[26],30.1 µM
same,GI50,[27],33.5 µM (inactive)
same,GI50,[28],17.6 µM (inactive)
same,GI50,[29],22.5 µM (inactive)
same,GI50,[30],21.3 µM (inactive)
same,GI50,[31],18.8 µM (inactive)
same,GI50,[32],22.6 µM (inactive)
same,GI50,[33],15 µM (inactive)
same,GI50,[34],21.2 µM (inactive)
same,GI50,[35],15.3 µM (inactive)
same,GI50,[36],16.4 µM (inactive)
same,GI50,[37],15.8 µM (inactive)
same,GI50,[38],36.5 µM (inactive)
same,GI50,[39],43.9 µM (inactive)
same,GI50,[40],21.8 µM (inactive)
same,GI50,[41],13.7 µM (inactive)
same,GI50,[42],19.4 µM (inactive)
same,GI50,[43],16.1 µM (inactive)
same,GI50,[44],23.3 µM (inactive)
same,GI50,[45],19.7 µM (inactive)
same,GI50,[46],21.4 µM (inactive)
same,GI50,[47],32 µM (inactive)
same,GI50,[48],16.8 µM (inactive)
same,GI50,[49],16.2 µM (inactive)
same,GI50,[50],23.4 µM (inactive)
same,GI50,[51],33.4 µM (inactive)
same,GI50,[52],19.1 µM (inactive)
same,GI50,[53],1.71 µM (inactive)
